Source: patent publication US11638424B2, “Mosquito attractant formulations and uses thereof” (priority 2017, dated 2023)

Test system: A. gambiae sensu lato
Experiment: Mosquito fitness after blood feeding (blood meal size, fecundity, survival)
Type: in vivo
Conditions: hRBCs vs RBCs
Procedure: Mosquitoes used in this study were from the laboratory colony of A. gambiae sensu lato (Keele line, University of Glasgow), which was produced by balanced interbreeding of four A. gambiae s.s. strains (H. Hurd, et al. Evolution, 59, 2560-2572 (2005)). Larvae were reared under standard insectary conditions (27±1° C., 70% humidity, 12 h light: 12 h dark cycle) and fed on TetraMin fish flakes (Tetra ltd., Germany). Pupae were transferred into holding cages for emergence. Emerged adults were fed ad libitum on 5% glucose solution, supplemented with 0.05% (w/v) 4-aminobenzoic acid (PABA, Sigma-Aldrich), through soaked filters on top of the 2 ml tubes and with soaked filter pads inside cages. Red blood cells (RBCs) were washed with Roswell Park Memorial Institute (RPMI) medium and stored in RPMI at 50% haematocrit at 4° C. until use. To measure the effect of HMBPP on mosquito fitness, RBCs stored in RPMI were centrifuged at 2500×g for 5 min followed by replacement of the medium with AB serum for a final haematocrit of 40%. HMBPP (stock concentration at 4 mM in Nanopure water, stored at −80° C.) was diluted to 10 μM in 1 ml RBC suspension, and the corresponding volume of Nanopure water was added to the control RBCs. All experiments were, unless otherwise stated, conducted on 5-7 days post-emergence female mosquitoes maintained in separated cages (approximately 210 individuals per cohort) and fed RBCs either with or without HMBPP for 30 min. All experiments were performed in triplicates.
GLMM statistical modelling was used to corroborate the validity of results based on the whole data set by including the effect of replications (experimental blocks), including weighting for multiple replications. In all analyses, the effect of the main experimental effects (e.g. treatment) was investigated while controlling for variation in experimental replication (random variable). For all results, the significance of all explanatory effects were evaluated by using likelihood ratio test (LRT). Analyses were performed using R statistical software. […]

For `C/C(=C\COP(=O)(O)OP(=O)(O)O)CO` [HMBPP, (E)-4-hydroxy-3-methyl-but-2-enyl pyrophosphate], the mosquito fecundity (FIG. 3A) was “Neither mosquito fecundity, nor survival was affected”, the mosquito survival (FIG. 3B) was “Neither mosquito fecundity, nor survival was affected” and the “size of mosquito blood meals” value (FIG. 3C) was “significantly increased”.
